# Laboratory results as given in patent publication US20240269196A1, “RESPIRATORY TREATMENTS USING SALMONID OIL COMPOSITIONS” (Hofseth Biocare ASA, priority 2020, published 2024).
# Values joined by “and” are separate entries in the source; they are usually repeats but may differ in a detail not shown here. Identical values can stand only once. Like-named read-outs stand apart in the source and are kept apart here.
# Tests used:
# [1] = tested on: guinea pig peritoneal eosinophils; experiment: Chemotactic and chemokinetic activities to leukotriene B4 of peritoneal eosinophils after i.p. pretreatment (Boyden chamber); type: in vivo, Cavia porcellus (Guinea Pig); details: for chemokinetic (B) activity to leukotriene B4 (0.1 uM), individual animals / chemotactic (A) activity to leukotriene B4 (0.1 uM), individual animals: guinea pig peritoneal eosinophils; for inhibition of eosinophil chemotactic and chemokinetic activities: i.p. pretreatment, n=3 per dose
# Experimental: The animals used in this example were from the species Cavia porcellus (Guinea Pig). A total of 21 male guinea pigs weighing between 200-250 g were selected. These animals were manually randomized into 7 groups i.e. G1 and G2 (OmeGo Salmon oil 30 and 300 mg/kg), G3 and G4 (SEACOD 30 and 300 mg/kg), G5 and G6 were positive control (Fevipiprant 5 and 20 mg/kg) and G7 was negative control (linoleic acid 300 mg/kg) wherein each group consisted of 3 animals.
# Guinea pigs were sensitized to create mild eosinphilia by intraperitoneal injection of Polymyxin B (1 mg/animal) once a week for 6 weeks. Polymyxin B was given by dissolving it in 0.9% saline solution. Each animal was injected with 0.5 mL of 0.9% saline containing 1 mg of Polymyxin B. In week 6, in addition to the Polymyxin B, animals were injected with test items belonging to their specific group, as shown in Table 5 below.
# Animals were treated with Polymyxin B through an intraperitoneal injection. Along with Polymyxin B even the test items were given through the intraperitoneal route. In the 6th week animals were anesthetized using isoflurane and the intraperitoneal fluid was collected by injecting 50 mL of saline in the peritoneum cavity. After massaging the abdomen for 15 seconds the fluid was drained and collected in the centrifuge tubes. Around 30-35 mL of fluid was collected from each animal. This fluid was centrifuged for 10 mins (400×g 4° C.) and was resuspended in FBS (Fetal bovine serum) medium. Following this step, the fluid was recentrifuged for 10 min (400×g 4° C.) and the cell pellet was analyzed for chemotactic and chemokinetic responses of eosinophils to leukotriene B4 and cell counts using a 96-well microchemotaxis test chamber.
# Eosinophils were recovered at greater than 90% purity using a modified procedure reported by Fukusa et. al. (Increased numbers of hypodense eosinophils in the blood of patients with bronchial asthma. Am. Rev. Respir. Dis. 1985; 132:981-985).
# The animals were treated with Polymyxin B saline solution once every week for continuously 5 weeks and in the 6th week along with the Polymyxin B test item was given as per the groups. Each animal received 1 mg of Polymyxin B.
# The chemotactic and chemokinetic activities were measured by the Boyden chamber method using a 96-well microchamber and expressed as the number of eosinophils counted on the membrane filter under ×400 magnification (cells/five fields). The chemokinetic activity to leukotriene B4 was examined by placing the same concentration of leukotriene B4 (0.1 μM) in both compartments of the chamber. Viability of the eosinophils was determined by the Trypan blue dye exclusion test after incubation for 90 min. All samples were assayed in duplicate. Blood was also collected on the same day and plasma was separated and stored at −20° C. for follow-on anti-inflammatory biomarker assays.
# [2] = type: in vivo; details: for Mortality and Morbidity: No. of Incidence/No. of Animals: incidence of the observation 'No mortality/morbidity'
# Source text: Clinical signs were observed after test item administration and all the other days throughout the study period for all the animals. The cage side observations included (but not limited to) changes in skin and fur, eyes and mucous membranes, as well as respiratory, circulatory, autonomic and central nervous system, somatomotor activity and behavior pattern.
# Animals were weighed during randomization, at start of treatment and weekly thereafter, until the end of experimental period.
# Raw Data were processed using Statistical Software Sigma Plot 14. The mean and Standard Deviation were calculated using the Software and all data were summarized in tabular form. All continuous data like the body weight was checked for their normality and for homogeneous data, ANOVA was used.
# [3] = 20 mg (i.p.), compared to control
SMILES,"chemokinetic (B) activity to leukotriene B4 (0.1 uM), individual animals ([1]; 5 mg/kg bw i.p.)","chemotactic (A) activity to leukotriene B4 (0.1 uM), individual animals ([1]; 5 mg/kg bw i.p.)","Maximum inhibition for chemokinesis [1, 3] [%]","Maximum inhibition for chemotaxis [1, 3] [%]","chemokinetic (B) activity to leukotriene B4 (0.1 uM), individual animals ([1]; 20 mg/kg bw i.p.)","chemotactic (A) activity to leukotriene B4 (0.1 uM), individual animals ([1]; 20 mg/kg bw i.p.)",inhibition of eosinophil chemotactic and chemokinetic activities [1],Mortality and Morbidity: Observation ([2]; 5 mg/kg bw),Mortality and Morbidity: No. of Incidence/No. of Animals ([2]; 5 mg/kg bw),Mortality and Morbidity: Observation ([2]; 20 mg/kg bw),Mortality and Morbidity: No. of Incidence/No. of Animals ([2]; 20 mg/kg bw),"chemokinetic (B) activity to leukotriene B4 (0.1 uM), individual animals ([1]; 300 mg/kg bw i.p.)","chemotactic (A) activity to leukotriene B4 (0.1 uM), individual animals ([1]; 300 mg/kg bw i.p.)"
Cc1c(CC(=O)O)c2cccnc2n1Cc1ccc(S(C)(=O)=O)cc1C(F)(F)F [Fevipiprant],290 Cells/5 fields (2×) and 280 Cells/5 fields,425 Cells/5 fields and 390 Cells/5 fields and 420 Cells/5 fields,51.7,68.0,160 Cells/5 fields and 175 Cells/5 fields and 165 Cells/5 fields,320 Cells/5 fields and 325 Cells/5 fields and 330 Cells/5 fields,significantly inhibited,No mortality/morbidity,03/03,No mortality/morbidity,03/03,,
CCCCC/C=C\C/C=C\CCCCCCCC(=O)O [Linoleic acid],,,,,,,did not inhibit,,,,,335 Cells/5 fields and 360 Cells/5 fields and 340 Cells/5 fields,770 Cells/5 fields and 790 Cells/5 fields and 760 Cells/5 fields
